Results taken from ChEMBL document CHEMBL1147689, “Development of withaferin A analogs as probes of angiogenesis” (Bioorg Med Chem Lett, 2006).
Activity calls are given as the source filed them. The calls are words filed in the database; no cut-off is given here.

Columns and labels:
Assay type in all cases: functional, cell-based
Conditions in all cases: Homo sapiens
HUVEC [1] = assay: Ability to block bFGF-induced vessel growth in the type 1 collagen matrix at 5 uM
HUVEC [2] = assay: Ability to block bFGF-induced vessel growth in the type 1 collagen matrix at 500 nM
HUVEC [3] = assay: Increase of ubiquitinated protein level in TNF-alpha-treated HUVEC at 5 uM
HUVEC [4] = assay: Ability to block bFGF-induced vessel growth in the type 1 collagen matrix at 1 uM

Row | SMILES | Activity (HUVEC [1]) | Activity (HUVEC [2]) | Activity (HUVEC [3]) | Activity (HUVEC [4])
1 | CC1=C(CO)C(=O)OC([C@@H](C)C2CCC3C4C(CC[C@@]32C)[C@@]2(C)C(=O)C=CC[C@]2(O)[C@H]2O[C@@H]42)C1 (stereo not given in full) | inactive | – | – | –
2 | CC1=C(COC(=O)CNC(=O)CCCCCNC(=O)CCCCCNC(=O)CCCC[C@@H]2SCC3NC(=O)NC32)C(=O)OC([C@@H](C)C2CCC3C4C[C@H]5O[C@]56[C@@H](O)C=CC(=O)[C@]6(C)C4CC[C@@]32C)C1 (stereo not given in full) | Active | inactive | Active | –
3 | CC1=C(CO)C(=O)O[C@@H]([C@@H](C)[C@H]2CC[C@H]3[C@@H]4C[C@H]5O[C@]56[C@@H](O)C=CC(=O)[C@]6(C)[C@H]4CC[C@]23C)C1 | – | – | – | Active
